Experimental findings from ChEMBL document CHEMBL1158432, “A novel photoaffinity ligand for the dopamine transporter based on pyrovalerone” (Bioorg Med Chem, 2009) are described below.

Holding throughout (type): cell-based
In assay [1] the target is T1, Sodium-dependent dopamine transporter (Homo sapiens, UniProt Q01959). The assay can be described thus: Inhibition of [3H]dopamine uptake at human dopamine transporter expressed in mouse N2A cells by scintillation counting.
For assay [2], the target named is T1, Sodium-dependent dopamine transporter. The assay can be described thus: Displacement of [3H]WIN-35428 from human dopamine transporter expressed in mouse N2A cells by scintillation counting.
Assay [3] deals with Sodium-dependent dopamine transporter (Rattus norvegicus) (UniProt P23977). The assay can be described thus: Binding affinity to rat dopamine transporter expressed in pig LLC-PK1 cells assessed as drug incorporation at 30 nM after 1 hr by SDS-PAGE analysis in presence of cocaine. As to conditions: tested as the 125I-labelled form.
Assay [4] shares this target. The assay can be described thus: Binding affinity to rat dopamine transporter expressed in pig LLC-PK1 cells assessed as drug incorporation at 30 nM after 1 hr by SDS-PAGE analysis. The conditions noted are these: tested as the 125I-labelled form.

Active and inactive are the calls of the source. The calls are words filed in the database; no cut-off is given here.

T1 sequence (Q01959 whole entry): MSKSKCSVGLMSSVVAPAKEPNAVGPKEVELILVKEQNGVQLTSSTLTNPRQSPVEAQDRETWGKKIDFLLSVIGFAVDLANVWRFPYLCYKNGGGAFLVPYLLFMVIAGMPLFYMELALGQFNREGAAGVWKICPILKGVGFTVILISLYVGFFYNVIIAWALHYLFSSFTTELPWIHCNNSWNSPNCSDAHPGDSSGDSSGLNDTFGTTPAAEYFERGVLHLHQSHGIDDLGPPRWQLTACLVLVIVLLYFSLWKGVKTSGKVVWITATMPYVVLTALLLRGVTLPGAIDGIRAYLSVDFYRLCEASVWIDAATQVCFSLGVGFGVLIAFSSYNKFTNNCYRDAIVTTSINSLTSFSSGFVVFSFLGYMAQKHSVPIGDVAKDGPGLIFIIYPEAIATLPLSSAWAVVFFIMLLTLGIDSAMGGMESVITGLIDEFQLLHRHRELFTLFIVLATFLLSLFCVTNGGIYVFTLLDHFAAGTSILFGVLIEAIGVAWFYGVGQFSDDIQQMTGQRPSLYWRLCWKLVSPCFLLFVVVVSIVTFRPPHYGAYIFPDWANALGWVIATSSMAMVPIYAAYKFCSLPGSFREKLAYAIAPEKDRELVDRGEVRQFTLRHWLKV
Sodium-dependent dopamine transporter (Rattus norvegicus), sequence (P23977 whole entry): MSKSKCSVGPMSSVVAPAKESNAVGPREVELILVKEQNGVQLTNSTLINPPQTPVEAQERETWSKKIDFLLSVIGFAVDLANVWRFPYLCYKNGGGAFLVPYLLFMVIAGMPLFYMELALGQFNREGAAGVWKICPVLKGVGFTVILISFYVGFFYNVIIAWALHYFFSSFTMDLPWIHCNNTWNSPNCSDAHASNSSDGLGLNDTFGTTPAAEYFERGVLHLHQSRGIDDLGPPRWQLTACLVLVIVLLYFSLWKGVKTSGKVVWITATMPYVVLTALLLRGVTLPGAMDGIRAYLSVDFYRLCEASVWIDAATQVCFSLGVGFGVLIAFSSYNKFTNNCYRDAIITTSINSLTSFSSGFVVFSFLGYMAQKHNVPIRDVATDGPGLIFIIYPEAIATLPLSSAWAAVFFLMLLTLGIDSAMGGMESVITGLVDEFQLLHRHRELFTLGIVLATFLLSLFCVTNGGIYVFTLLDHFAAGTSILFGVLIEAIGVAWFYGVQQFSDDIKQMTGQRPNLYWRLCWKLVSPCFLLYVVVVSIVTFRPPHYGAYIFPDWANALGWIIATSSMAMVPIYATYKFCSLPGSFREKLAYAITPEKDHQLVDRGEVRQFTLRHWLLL

As a reminder, the IC50 is the concentration that inhibits the measured activity by half. Higher therefore signals a need for much substance. Usually Ki stands for a measure of affinity in units of concentration, obtained from inhibition or displacement. Compound `CCCC(C(=O)c1ccc(N=[N+]=[N-])c(I)c1)N1CCCC1` (stereo not given) registered an IC50 in assay [1] of 264 nM. Further, the Ki in assay [2] was 78 nM. Moreover, in assay [3], the outcome was inactive. Also, the result in assay [4] was Active.
Take `CCCC(C(=O)c1ccc(N)cc1)N1CCCC1` (stereo not given): 7 nM corresponded to half-maximal inhibition in assay [1] (IC50). In addition, in assay [2], the Ki turned out to be 5 nM.
In assay [1], `CCCC(C(=O)c1ccc(C)cc1)N1CCCC1` (stereo not given) [PYROVALERONE] gave an IC50 of 32 nM. Also, the Ki in assay [2] was found to be 8 nM.
The matching figures for `CCCC(C(=O)c1ccc(N)c(I)c1)N1CCCC1` (stereo not given): 175 nM and 28 nM.
